Source: patent US20050075375A1 (priority 2003, published 2005)
Read-outs that look alike come from different tables or passages of the source.

System: monocistronic NK5.1 HCV replicon in Huh7 cells
Test: HCV replicon assay, monocistronic replicon cell line
Type: cell-based, hepatitis C virus
Conditions: Hepatitis C virus, read-out: Mono EC50 Median
Outline: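 Huh7 cells carrying the monocistronic NK5.1 replicon, seeded 24 h before dosing, were exposed to six-point half-log compound series (0.6% DMSO) for 3 days at 37 °C. Replicon RNA was quantified by TaqMan RT-PCR, normalised to GAPDH and compared with DMSO controls to derive EC50.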

[1] = Huh-7, 72 h, table T3 (compounds 471-640), monocistronic replicon in Huh7 cells, 3 days incubation, HCV RNA/GAPDH RNA by TaqMan RT-PCR
[2] = Huh-7, monocistronic NK5.1 HCV replicon in Huh7 cells, median value
[3] = Huh-7, 72 h, Table 1, monocistronic replicon in Huh7 cells, 3 days incubation, HCV RNA/GAPDH RNA by TaqMan RT-PCR

| SMILES | EC50 [1] [µM] | EC50 [2] [µM] | EC50 [3] [µM] |
| --- | --- | --- | --- |
| COc1ccc(O)c(-c2nc(-c3ccccn3)nn2C)c1 [Compound 598, 4-Methoxy-2-(2-methyl-5-pyridin-2-yl-2H-[1,2,4]triazol-3-yl)-phenol] | > 32 |  |  |
| Nc1ccc(-c2noc(-c3cc(Br)ccc3O)n2)nc1 [Compound 254, 2-[3-(5-Amino-pyridin-2-yl)-[1,2,4]oxadiazol-5-yl]-4-bromo-phenol] |  | 32 |  |
| O=[N+]([O-])c1ccc(F)c(-c2nc(-c3ccccn3)no2)c1 [Compound 149] |  |  | 4.1 |
| COc1ccc(-c2nc(-c3ccc(NC(=O)OC(C)(C)C)cn3)no2)c(O)c1 [Compound 238, {6-[5-(2-Hydroxy-4-methoxy-phenyl)-[1,2,4]oxadiazol-3-yl]-pyridin-3-yl}-carbamic acid tert-butyl ester] |  | 1.9 | 1.9 |
| Oc1ccc(Cl)cc1-c1nc(-c2cnccc2C(F)(F)F)n[nH]1 [Compound 415, 4-Chloro-2-[5-(4-trifluoromethyl-pyridin-3-yl)-2H-[1,2,4]triazol-3-yl]-phenol] |  | 14 |  |
| Cn1nc(-c2ccccn2)nc1-c1cc(Br)ccc1O [Compound 596, 4-Bromo-2-(2-methyl-5-pyridin-2-yl-2H-[1,2,4]triazol-3-yl)-phenol] | 15 |  |  |
| Oc1ccc(F)cc1-c1nc(-c2cnccn2)n[nH]1 [Compound 577, 4-Fluoro-2-(5-pyrazin-2-yl-2H-[1,2,4]triazol-3-yl)-phenol] | 18 |  |  |
| CC(C)c1ccc(-c2nc(-c3cnccc3C(F)(F)F)n[nH]2)cc1 [Compound 428, 3-[5-(4-Isopropyl-phenyl)-1H-[1,2,4]triazol-3-yl]-4-trifluoromethyl-pyridine] |  | > 19 |  |
| COc1cccc(-c2nc(-c3nccc4ccccc34)no2)c1 [Compound 197, 1-[5-(3-Methoxy-phenyl)-[1,2,4]oxadiazol-3-yl]-isoquinoline] |  |  | > 32 |
| Cc1ccc(O)c(-c2nc(-c3ncccc3C(F)(F)F)n[nH]2)c1 [Compound 540, 4-Methyl-2-[5-(3-trifluoromethyl-pyridin-2-yl)-2H-[1,2,4]triazol-3-yl]-phenol] | > 19 |  |  |
| Cc1cccnc1-c1nc(-c2cc(F)ccc2O)n(C)n1 [Compound 608, 4-Fluoro-2-[2-methyl-5-(3-methyl-pyridin-2-yl)-2H-[1,2,4]triazol-3-yl]-phenol] | 8.1 |  |  |
| FC(F)(F)c1cccnc1-c1n[nH]c(-c2cccc3ccccc23)n1 [Compound 530, 2-(5-Naphthalen-1-yl-1H-[1,2,4]triazol-3-yl)-3-trifluoromethyl-pyridine] | > 19 |  |  |
| Cn1nc(-c2ncccc2C(F)(F)F)nc1-c1cc([N+](=O)[O-])ccc1O [Compound 640, 4-Nitro-2-[2-methyl-5-(3-trifluoromethyl-pyridin-2-yl)-2H-[1,2,4]triazol-3-yl]-phenol] | > 32 |  |  |
| Cc1cccnc1-c1nc(-c2cc([N+](=O)[O-])ccc2O)n(C)n1 [Compound 607, 4-Nitro-2-[2-methyl-5-(3-methyl-pyridin-2-yl)-2H-[1,2,4]triazol-3-yl]-phenol] | 2.8 |  |  |
| Brc1ccc(OCc2ccccc2)c(-c2ccn(-c3ccccn3)n2)c1 [Compound 98, 2-[3-(2-Benzyloxy-5-bromo-phenyl)-pyrazol-1-yl]-pyridine] |  |  | 15 |
| COc1cccc(-c2nc(-c3cnccn3)n[nH]2)c1O [Compound 586, 6-Methoxy-2-(5-pyrazin-2-yl-2H-[1,2,4]triazol-3-yl)-phenol] | > 32 |  |  |
| COc1cccc(-c2nc(-c3ccc(C(F)(F)F)cn3)n[nH]2)c1 [Compound 523, 2-[5-(3-Methoxy-phenyl)-1H-[1,2,4]triazol-3-yl]-5-trifluoromethyl-pyridine] | > 19 |  |  |
| Oc1cc(OCc2ccccc2)ccc1-c1nc(-c2ncccn2)n[nH]1 [Compound 565, 5-Benzyloxy-2-(5-pyrimidin-2-yl-2H-[1,2,4]triazol-3-yl)-phenol] | 26 |  |  |
| Cc1ccc(O)c(-c2nc(-c3cccc(C)n3)n[nH]2)c1 [Compound 400, 4-Methyl-2-(5-(6-methyl-pyridin-2-yl)-2H-[1,2,4]triazol-3-yl)-phenol] |  | > 19 |  |
| Oc1ccccc1-c1ccn(-c2ccccn2)n1 [Compound 43, 2-(1-Pyridin-2-yl-1H-pyrazol-3-yl)-phenol] |  |  | 15 |
| Oc1ccc(Br)cc1-c1nc(-c2cnccn2)n[nH]1 [Compound 582, 4-Bromo-2-(5-pyrazin-2-yl-2H-[1,2,4]triazol-3-yl)-phenol] | 18 |  |  |
| COc1ccc(OCc2ccccc2)c(-c2ccn(-c3ccccn3)n2)c1 [Compound 82, 2-[3-(2-Benzvloxy-5-methoxy-phenvl)-pvrazol-1-yl]-pyridine] |  |  | 4.3 |
| Oc1cc(OCc2ccccc2)ccc1-c1nc(-c2ncccc2Br)n[nH]1 [Compound 490, 2-[5-(3-Bromo-pyridin-2-yl)-2H-[1,2,4]triazol-3-yl]-5-Benzyloxy-phenol] | 7 |  |  |

| SMILES | EC50 [1] [µM] | EC50 [2] [µM] | EC50 [3] [µM] |
| --- | --- | --- | --- |
| Cc1cccnc1-c1n[nH]c(-c2cc(Cl)ccc2O)n1 [Compound 445, 4-Chloro-2-(5-(3-methyl-pyridin-2-yl)-2H-[1,2,4]triazol-3-yl)-phenol] |  | 2.9 |  |
| Oc1ccc(Br)cc1-c1nc(-c2nccc3ccccc23)n[nH]1 [Compound 374, 4-Bromo-2-(5-isoquinolin-1-yl-2H-[1,2,4]triazol-3-yl)-phenol] |  | > 19 |  |
| Cn1nc(-c2ccccn2)nc1-c1cc(Cl)cc(Cl)c1O [Compound 625, 4,6-Dichloro-2-(2-methyl-5-pyridin-2-yl-2H-[1,2,4]triazol-3-yl)-phenol] | 3.2 |  |  |
| COc1ccc(-c2nc(-c3ncccc3OC)no2)c(O)c1 [Compound 247, 5-Methoxy-2-[3-(3-methoxy-pyridin-2-yl)-[1,2,4]oxadiazol-5-yl]-phenol] |  | 4.1 | 4.1 |
| Cc1cccnc1-c1n[nH]c(-c2cc3c4c(c2O)C(C)(C)CCN4CCC3(C)C)n1 [Compound 456, 1,1,7,7-Tetramethyl-9-[5-(3-methyl-pyridin-2-yl)-2H-[1,2,4]triazol-3-yl]-2,3,6,7-tetrahydro-1H,5H-pyrido[3,2,1-ij]quinolin-8-ol] |  | 0.73 |  |
| Oc1ccc(Br)cc1-c1ccnn1-c1ncccc1C(F)(F)F [Compound 106, 4-Bromo-2-[2-(3-trifluoromethyl-pyridin-2-yl)-2H-pyrazol-3-yl]-phenol] |  |  | 15 |
| Fc1cc(-c2nc(-c3ncccc3C(F)(F)F)n[nH]2)ccc1-c1ccccc1 [Compound 538, 2-[5-(2-Fluoro-biphenyl-4-yl)-1H-[1,2,4]triazol-3-yl]-3-trifluoromethyl-pyridine] | > 19 |  |  |
| CCN(CC)c1ccc(-c2nc(-c3ncccn3)n[nH]2)c(O)c1 [Compound 571, 5-Diethylamino-2-(5-pyrimidin-2-yl-2H-[1,2,4]triazol-3-yl)-phenol] | 18 |  |  |
| FC(F)(F)c1ccncc1-c1n[nH]c(-c2ccccc2Cl)n1 [Compound 476, 3-[5-(2-Chloro-phenyl)-1H-[1,2,4]triazol-3-yl]-4-trifluoromethyl-pyridine] | > 32 |  |  |
| Cc1ccc(O)c(-c2nc(-c3ccc(C(F)(F)F)cn3)no2)c1 [Compound 225, 4-Methyl-2-[3-(5-trifluoromethyl-pyridin-2-yl)-[1,2,4]oxadiazol-5-yl]-phenol] |  | 7.5 | 7.5 |
| CCOc1cccc(-c2nc(-c3cnccc3C(F)(F)F)n[nH]2)c1O [Compound 416, 6-Ethoxy-2-[5-(4-trifluoromethyl-pyridin-3-yl)-2H-[1,2,4]triazol-3-yl]-phenol] |  | > 19 |  |
| COc1cccc(-c2cc(-c3ccccn3)on2)c1O [Compound 124, 2-Methoxy-6-(5-pyridin-2-yl-isoxazol-3-yl)-phenol] |  |  | 26 |
| CCOC(=O)c1cc(-c2ccc(OC)cc2)nn1-c1ncccc1[N+](=O)[O-] [Compound 60, 5-(4-Methoxy-phenyl)-2-(3-nitro-pyridin-2-yl)-2H-pyrazole-3-carboxylic acid ethyl ester] |  |  | > 32 |
| Cc1cccc(-c2n[nH]c(-c3ccc(Br)cc3)n2)n1 [Compound 464, 2-[5-(4-Bromo-phenyl)-1H-[1,2,4]triazol-3-yl]-6-methyl-pyridine] |  | > 32 |  |
| COc1ccc(O)c(-c2ccn(-c3ncccc3[N+](=O)[O-])n2)c1 [Compound 117, 4-Methoxy-2-[1-(3-nitro-pyridin-2-yl)-1H-pyrazol-3-yl]-phenol] |  |  | 25.4 |
| Cn1nc(-c2ccccn2)nc1-c1cc([N+](=O)[O-])ccc1O [Compound 597, 4-Nitro-2-(2-methyl-5-pyridin-2-yl-2H-[1,2,4]triazol-3-yl)-phenol] | 11 |  |  |
| COc1ccc(F)c(-c2nc(-c3cnccc3C(F)(F)F)n[nH]2)c1 [Compound 481, 3-[5-(2-Fluoro-5-methoxy-phenyl)-1H-[1,2,4]triazol-3-yl]-4-trifluoromethyl-pyridine] | > 32 |  |  |
| COc1ccc(-c2nc(-c3ccccn3)n[nH]2)c(O)c1 [Compound 363, 5-Methoxy-2-(5-pyridin-2-yl-2H-[1,2,4]triazol-3-yl)-phenol] |  | > 19 |  |
| O=[N+]([O-])c1cccc(-c2nc(-c3nccc4ccccc34)n[nH]2)c1 [Compound 379] |  | > 19 |  |
| Cc1cccc(-c2n[nH]c(-c3ccccc3O)n2)n1 [Compound 402, 2-(5-(6-methyl-pyridin-2-yl)-2H-[1,2,4]triazol-3-yl)-phenol] |  | > 19 |  |
| Cc1cccnc1-c1nc(-c2c(O)ccc3ccccc23)n(C)n1 [Compound 617, 1-[2-methyl-5-(3-methyl-pyridin-2-yl)-2H-[1,2,4]triazol-3-yl]-naphthalen-2-ol] | > 19 |  |  |
| COc1cccc(-c2nc(-c3cccc(C)n3)n[nH]2)c1O [Compound 403, 6-Methoxy-2-(5-(6-methyl-pyridin-2-yl)-2H-[1,2,4]triazol-3-yl)-phenol] |  | > 19 |  |
